Assay [1] concerns the target Vascular endothelial growth factor receptor 2 (Homo sapiens) (UniProt P35968). To be noted: at 0.1 mg/mL.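 Note: VEGFR-2 inhibition read out by HTRF after 1 h, with the receptor's origin stated as unknown.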
Description: Inhibition of VEGFR-2 (unknown origin) at 0.1 mg/ml after 1 hr by HTRF assay
In the next assay the test system is MCF7. The experiment in a line: Antiproliferative activity against human MCF7 cells after 48 hrs by MTT assay. The format is functional, cell-based. The conditions noted are these: MCF7, 48 h. Background: Tetrazolium dyes change colour on reduction, which living cells bring about.
A further assay deals with Chorioallantoic membrane. The experiment in a line: Antiangiogenic activity in Chicken chorioallantoic membrane after 72 hrs relative to control. The format is functional, cell membranes. The conditions noted are these: Gallus gallus.

Vascular endothelial growth factor receptor 2 (Homo sapiens), sequence (P35968 whole entry): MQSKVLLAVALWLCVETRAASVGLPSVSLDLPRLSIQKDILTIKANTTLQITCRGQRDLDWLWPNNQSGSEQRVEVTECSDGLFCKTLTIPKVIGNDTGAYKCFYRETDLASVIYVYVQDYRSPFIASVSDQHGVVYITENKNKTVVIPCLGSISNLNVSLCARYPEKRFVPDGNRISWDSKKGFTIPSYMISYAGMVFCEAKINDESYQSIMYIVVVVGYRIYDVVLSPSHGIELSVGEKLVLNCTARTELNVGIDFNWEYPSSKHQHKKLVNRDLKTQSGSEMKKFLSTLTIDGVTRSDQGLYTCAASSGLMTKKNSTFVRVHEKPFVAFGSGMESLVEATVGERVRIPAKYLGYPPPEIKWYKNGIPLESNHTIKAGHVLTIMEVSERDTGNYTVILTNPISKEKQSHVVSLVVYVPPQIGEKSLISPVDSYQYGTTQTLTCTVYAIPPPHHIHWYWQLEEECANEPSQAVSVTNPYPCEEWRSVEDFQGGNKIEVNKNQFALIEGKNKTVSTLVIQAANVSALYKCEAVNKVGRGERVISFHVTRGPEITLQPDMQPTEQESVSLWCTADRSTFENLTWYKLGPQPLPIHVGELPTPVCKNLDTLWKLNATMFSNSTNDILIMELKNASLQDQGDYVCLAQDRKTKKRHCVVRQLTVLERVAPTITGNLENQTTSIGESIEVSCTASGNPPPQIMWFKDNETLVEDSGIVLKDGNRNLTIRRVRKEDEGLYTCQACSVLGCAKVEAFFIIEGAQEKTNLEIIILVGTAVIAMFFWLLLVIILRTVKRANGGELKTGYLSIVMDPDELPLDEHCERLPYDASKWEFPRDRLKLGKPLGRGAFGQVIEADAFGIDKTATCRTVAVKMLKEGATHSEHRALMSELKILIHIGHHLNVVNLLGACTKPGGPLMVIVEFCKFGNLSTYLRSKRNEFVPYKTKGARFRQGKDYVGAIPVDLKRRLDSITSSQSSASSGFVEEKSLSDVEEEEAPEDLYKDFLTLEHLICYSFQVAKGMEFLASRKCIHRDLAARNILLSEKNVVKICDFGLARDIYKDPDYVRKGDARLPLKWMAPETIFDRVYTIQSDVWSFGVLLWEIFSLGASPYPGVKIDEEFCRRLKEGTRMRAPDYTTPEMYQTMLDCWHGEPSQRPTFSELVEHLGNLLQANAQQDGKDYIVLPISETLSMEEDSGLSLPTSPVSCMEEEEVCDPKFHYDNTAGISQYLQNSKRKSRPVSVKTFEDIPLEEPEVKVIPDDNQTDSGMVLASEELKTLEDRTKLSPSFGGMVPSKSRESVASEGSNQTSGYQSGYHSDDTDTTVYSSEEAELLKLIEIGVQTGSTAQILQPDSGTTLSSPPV

Turning to `COc1ccc(-c2cc3ccc(OC)cc3c(=O)n2-c2ccc(OCCN3CCCC3)cc2)cc1`, in assay [1], the inhibition was found to be 83.8%. Further, in the assay with MCF7, the half-maximal inhibitory concentration (IC50) turned out to be 863 µM.
`COc1ccc(-c2cc3ccc(OC)cc3c(=O)n2-c2ccc(OCCCN3CCCCC3)cc2)cc1`: in assay [1], the inhibition came to 72.8%. Besides, the IC50 with MCF7 is > 1000 µM.
On the same counts, the results for `COc1ccc(-c2cc3ccc(OC)cc3c(=O)n2-c2ccc(OCCN3CCN(C)CC3)cc2)cc1` are 79.4% and 429 µM.
With `O=c1c2cc(O)ccc2cc(-c2ccc(O)cc2)n1-c1ccc(OCCN2CCCCC2)cc1`, the inhibition in assay [1] stood at 84.8%. This compound also displayed an IC50 with MCF7 of 3.63 µM.
Take `CN(C)CCOc1ccc(-n2c(-c3ccc(O)cc3)cc3ccc(O)cc3c2=O)cc1`: the inhibition in assay [1] stood at 79.4%. Also, in the assay on MCF7, the concentration for half-maximal inhibition (IC50) came out at 18.9 µM.
On the same counts, the results for `COc1ccc(-c2cc3ccc(OC)cc3c(=O)n2-c2ccc(OCCN3CCCCC3)cc2)cc1` are 65.3% and 322 µM.
In the case of `O=c1c2cc(O)ccc2cc(-c2ccc(O)cc2)n1-c1ccc(OCCCN2CCCC2)cc1`, the inhibition in assay [1] worked out at 48.3%. This compound had an IC50 in the assay on MCF7 of 12.7 µM.
On to `CN1CCN(CCOc2ccc(-n3c(-c4ccc(O)cc4)cc4ccc(O)cc4c3=O)cc2)CC1`, for which the values for the inhibition (in assay [1]; in the assay on Chorioallantoic membrane) were 103% and “Dose-dependent effect”, respectively. In addition, half-maximal inhibition in the assay with MCF7 (IC50) required 9.45 µM.
Turning to `CCN(CC)CCOc1ccc(-n2c(-c3ccc(OC)cc3)cc3ccc(OC)cc3c2=O)cc1`, in assay [1], the inhibition stood at 92.5%. Half-maximal inhibition in the assay on MCF7 (IC50) required 383 µM.
As to `COc1ccc(-c2cc3ccc(OC)cc3c(=O)n2-c2ccc(OCCN3CCOCC3)cc2)cc1`, the inhibition in assay [1] turned out to be 51.2%. The concentration for half-maximal inhibition (IC50) in the assay with MCF7 is > 1000 µM.
On to `O=c1c2cc(O)ccc2cc(-c2ccc(O)cc2)n1-c1ccc(OCCN2CCCC2)cc1`, for which the inhibition in assay [1] stood at 49.9%. In the assay on MCF7, this compound gave an IC50 of 11.8 µM.
The compound `CC/C(=C(\c1ccccc1)c1ccc(OCCN(C)C)cc1)c1ccccc1` [TAMOXIFEN] yielded a half-maximal inhibitory concentration (IC50) in the assay with MCF7 of 1.89 µM.
For the compound `COc1ccc(-c2cc3ccc(OC)cc3c(=O)n2-c2ccc(OCCCN3CCCC3)cc2)cc1`, in assay [1], the inhibition worked out at 98.5%. In addition, it took 479 µM to reach half-maximal inhibition with MCF7 (IC50).
As to `O=c1c2cc(O)ccc2cc(-c2ccc(O)cc2)n1-c1ccc(OCCCN2CCCCC2)cc1`, the figures for the inhibition (in assay [1]; in the assay on Chorioallantoic membrane) were 100% and “Dose-dependent effect”, respectively. The same compound came in with a concentration for half-maximal inhibition (IC50) with MCF7 of 2.73 µM.
Take `COc1ccc(-c2cc3ccc(OC)cc3c(=O)n2-c2ccc(OCCN(C)C)cc2)cc1`: the inhibition in assay [1] was 66.1%. Moreover, the IC50 in the assay with MCF7 was > 1000 µM.

Broadly, the inhibition is the drop in the measured response relative to a control, in per cent. As a reminder, the IC50 is the midpoint of a concentration-inhibition curve. Low values mean greater potency, high ones weaker potency.

Source of the values: ChEMBL document CHEMBL3259730, “Synthesis and biological evaluation of 2,3-diaryl isoquinolinone derivatives as anti-breast cancer agents targeting ERα and VEGFR-2” (Bioorg Med Chem Lett, 2014).
